Values quoted from earlier work in patent publication US20070254006A1, “Medical Devices and Coatings with Non-Leaching Antimicrobial Peptides” (Massachusetts Institute of Technology, priority 2006, published 2007).

Tests used:
[1] = system: avidin and streptavidin; details: interaction with avidin and streptavidin
[2] = system: Staphylococcus aureus; details: Dacron graft soaked in peptide solution before implanting in a rat, bacterial challenge

Row | Compound | Ka [1] | incidence of device colonization and infection [2]
1 | O=C(O)CCCC[C@@H]1SC[C@@H]2NC(=O)N[C@@H]21 [Biotin] | 10^15 M^−1 | –
2 | dermaseptin | – | reduces the incidence of device colonization and infection
